Source: paper PMC6937553, “Structural and biochemical studies of the glucuronoyl esterase OtCE15A illuminate its interaction with lignocellulosic components” (The Journal of Biological Chemistry, 2019)
One block for each molecule: values may come before it.

How the values were obtained:
OtCE15A [1] = molecular target: T1, OtCE15A (Opitutus terrae, UniProt B1ZMF4); test: X-ray crystal structure; format: binding
T1 construct: gene Oter_0116; recombinant in E. coli BL21 (DE3), purified as in earlier work; catalytic Ser-267, His-408, Glu-290, Asp-356
T1 sequence (B1ZMF4 entry or part of it): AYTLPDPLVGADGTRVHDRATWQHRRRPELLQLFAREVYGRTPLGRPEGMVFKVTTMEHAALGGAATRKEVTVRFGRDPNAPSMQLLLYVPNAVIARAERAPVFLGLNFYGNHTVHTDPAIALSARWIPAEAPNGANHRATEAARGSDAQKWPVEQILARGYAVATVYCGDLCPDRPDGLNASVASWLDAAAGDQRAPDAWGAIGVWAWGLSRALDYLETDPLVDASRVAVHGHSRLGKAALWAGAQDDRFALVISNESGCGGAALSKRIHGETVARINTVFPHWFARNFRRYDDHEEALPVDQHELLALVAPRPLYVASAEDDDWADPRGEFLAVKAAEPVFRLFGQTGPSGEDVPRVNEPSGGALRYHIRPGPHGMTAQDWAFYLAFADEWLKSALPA

OtCE15A [2] = molecular target: T1, OtCE15A; test: continuous coupled esterase assay (K-URONIC kit); format: biochemical
Text: (§1) continuous coupled esterase assay (K-URONIC kit) on OtCE15A

OtCE15A [3] = molecular target: T2, OtCE15A (Opitutus terrae, UniProt B1ZMF4, L269Y); test: continuous coupled esterase assay (K-URONIC kit); format: biochemical; settings: substrate inhibition constant
T2 construct: gene Oter_0116; recombinant in E. coli BL21 (DE3), purified as in earlier work; catalytic Ser-267, His-408, Glu-290, Asp-356
T2 sequence (B1ZMF4 entry or part of it L269Y): as the sequence (B1ZMF4 entry or part of it) above, with L237Y counted along it
Text: as §1

OtCE15A [4] = molecular target: T1, OtCE15A; test: inhibition of BnzGlcA hydrolysis, coupled continuous assay (K-URONIC kit); format: biochemical; settings: BnzGlcA as substrate (3.5 mM or 350 μM)
OtCE15A [5] = molecular target: T1, OtCE15A; test: as above; format: biochemical; settings: BnzGlcA as substrate (3.5 mM or 350 μM); remark: listed apart in the source
OtCE15A [6] = molecular target: T1, OtCE15A; test: as above; format: biochemical; settings: competitive; BnzGlcA as substrate

SMILES: O=C(O)[C@H]1OC(O)[C@H](O)[C@@H](O)[C@@H]1O (some centres unmarked) [GlcA, glucuronate]
X-ray crystal structure (OtCE15A [1]; active site): We determined the structure of the WT OtCE15A in complex with the product GlcA

SMILES: COC(=O)[C@H]1OC(O)[C@H](O)[C@@H](O)[C@H]1O (some centres unmarked) [MeGalA, methyl galacturonoate]
Km (OtCE15A [2]): 5.31 ± 0.51 mM

SMILES: CO[C@H]1[C@H](O)[C@@H](O)[C@@H](O[C@H]2[C@H](O[C@@H]3COC(O)[C@H](O)[C@H]3O)OC[C@@H](O[C@@H]3OC[C@@H](O)[C@H](O)[C@H]3O)[C@@H]2O)O[C@@H]1C(=O)O (stereo partly drawn) [XUX, 2^3-(4-O-methyl-α-D-glucuronyl)-xylotriose]
X-ray crystal structure (OtCE15A [1]; active site, no variant named, taken as wild type): OtCE15A in complex with the glucuronoxylan oligosaccharide XUX (PDB code 6T0I)

SMILES: OC1OC[C@@H](O[C@@H]2OC[C@@H](O)[C@H](O)[C@H]2O)[C@H](O)[C@H]1O (some centres unmarked) [xylobiose]
% reduction of activity at 100 mM (OtCE15A [5]): ~ 50%
X-ray crystal structure (OtCE15A [1]; active site and second site about 25 Å away, no variant named, taken as wild type): showing the two xylobiose-binding sites (PDB code 6SYU)

SMILES: OC1OC[C@@H](O)[C@H](O)[C@H]1O (some centres unmarked) [xylose]
Ki (OtCE15A [6]): 48.1 mM

Results, then the molecule that gave them:

Ksi (OtCE15A [3]): 34.5 ± 11.9 mM
SMILES: COC(=O)[C@H]1OC(O)[C@H](O)[C@@H](O)[C@@H]1O (some centres unmarked) [MeGlcA, methyl glucuronoate]

% inhibition at up to 250 mM (OtCE15A [4]): < 10%
SMILES: OC[C@H]1OC(O)[C@H](O)[C@@H](O)[C@@H]1O (some centres unmarked) [glucose]
